For orientation: Kd means the equilibrium constant for the complex coming apart.

The target of the test is T1, PfHsp70-1 (Plasmodium falciparum, UniProt P11144).
T1 construct: recombinant PfHsp70-1 (pQE30/PfHsp70-1)
Nature of the test: SPR, PfHsp70-1 immobilized on CMD 3-D gold chip by amine coupling. The format is binding. From the text:
SPR, PfHsp70-1 immobilized on CMD 3-D gold chip by amine coupling on PfHsp70-1 | PfHsp70 binds to either of the two compounds within the micromolar range of affinity

Read-outs that look alike come from different tables or passages of the source.

T1 sequence (P11144 whole entry): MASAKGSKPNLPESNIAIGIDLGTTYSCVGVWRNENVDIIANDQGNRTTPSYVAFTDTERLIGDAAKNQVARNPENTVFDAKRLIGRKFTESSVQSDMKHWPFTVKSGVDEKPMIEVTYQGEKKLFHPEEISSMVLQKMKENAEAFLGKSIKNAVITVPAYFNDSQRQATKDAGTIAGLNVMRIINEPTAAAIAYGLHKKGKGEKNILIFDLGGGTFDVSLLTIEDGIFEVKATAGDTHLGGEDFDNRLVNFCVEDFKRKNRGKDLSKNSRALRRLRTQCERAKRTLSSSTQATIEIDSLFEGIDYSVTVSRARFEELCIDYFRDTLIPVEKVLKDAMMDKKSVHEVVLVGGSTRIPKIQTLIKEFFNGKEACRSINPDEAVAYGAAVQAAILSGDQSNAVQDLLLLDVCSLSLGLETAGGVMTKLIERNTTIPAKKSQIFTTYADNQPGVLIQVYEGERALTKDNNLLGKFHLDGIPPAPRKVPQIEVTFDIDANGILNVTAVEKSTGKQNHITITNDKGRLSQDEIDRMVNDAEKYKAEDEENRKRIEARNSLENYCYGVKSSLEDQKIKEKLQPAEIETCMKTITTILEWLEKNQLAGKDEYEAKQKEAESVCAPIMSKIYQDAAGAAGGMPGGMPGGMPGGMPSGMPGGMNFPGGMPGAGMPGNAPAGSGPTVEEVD

iso-mukaadial acetate [IMA]: the Kd (read-out: KD) was determined as 9.89 µM.
The compound `CC(=O)O[C@H]1CC[C@]2(C)[C@H]3CC=C4[C@@H]5[C@@H](C)[C@H](C)CC[C@]5(C(=O)O)CC[C@@]4(C)[C@]3(C)CC[C@H]2C1(C)C` [UAA, ursolic acid acetate] gave a Kd of 4.03 µM.

Source of the values: PMC10949600, “Iso-mukaadial acetate and ursolic acid acetate bind to Plasmodium Falciparum heat shock protein 70: towards targeting parasite protein folding pathway” (BMC Chemistry, 2024).
